Assay [1] deals with B. subtilis FabH. The experiment in a line: FabH radiochemical assay, […]-ketoacyl-ACP formed. The assay is classed as biochemical, Bacillus subtilis.
Assay [2] deals with T1, S. aureus FabH (Staphylococcus aureus, UniProt Q8NXE2).
T1 sequence (Q8NXE2 1-313): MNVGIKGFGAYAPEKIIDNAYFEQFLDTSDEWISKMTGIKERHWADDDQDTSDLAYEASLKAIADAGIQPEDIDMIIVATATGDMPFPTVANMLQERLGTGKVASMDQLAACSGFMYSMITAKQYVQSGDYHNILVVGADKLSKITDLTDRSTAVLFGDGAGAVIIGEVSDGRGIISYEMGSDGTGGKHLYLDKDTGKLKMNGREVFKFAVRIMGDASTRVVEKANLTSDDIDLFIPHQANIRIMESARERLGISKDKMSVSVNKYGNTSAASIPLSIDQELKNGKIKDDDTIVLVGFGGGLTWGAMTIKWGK
The assay is described as above. The assay is classed as biochemical.

The IC50 is the concentration that inhibits the measured activity by half. Low values mean higher potency, high ones lower potency. As for `C=C(C(=O)O)[C@@H]1O[C@H]1CCCCC=C(C)CCC[C@H](O)CC` [compound 2, conocandin B], the results for the IC50 in assay [1] and in assay [2] were 53.5 ± 10.4 µM and 18.8 ± 2.5 µM, respectively.

For the origin of these results see publication PMC8465764 (Organic letters, 2021).
